{"source": "patent US11732264B2", "about": "“Compositions and methods for treating COVID-19” (Vast Sea Biotechnology, Inc., priority 2020, dated 2023)", "type_in_all_cases": "cell-based", "key": {"[1]": {"test_system": "human primary lung small airway epithelial cells (HSAEC)", "experiment": "FACS detection of intercellular delivery of oligos in HSAEC", "details": "for cells with intercellular signals of the oligos, Arginine compared with lipofectamine (FACS): 10 ul/well Arginine vs lipofectamine"}, "[2]": {"test_system": "primary human lung small airway epithelial cells", "experiment": "Fluorescence microscopy of oligo entry into HSAEC", "details": "24-48 hours, fluorescent filter 10x/20x, lipofectamine, poly-arginine or no reagent per FIG. 1"}, "[3]": {"test_system": "primary human lung bronchial/tracheal epithelial cells", "experiment": "Fluorescence microscopy of oligo entry into HBTEC", "details": "24-48 hours, fluorescent filter 10x/20x, delivery per FIG. 20"}, "[4]": {"test_system": "Human Primary Nasal Epithelial Cells", "experiment": "Fluorescence microscopy of oligo entry into HNEpC", "details": "24-48 hours, fluorescent filter 10x/20x, delivery per FIG. 35"}}, "note": "d = 2'-deoxy (DNA); r = 2'-OH (RNA)"}
{"substance": "TGTTAATTGGAACGCCTTGTC (Cy3 label, position not given here) [VS_ASO_2-Cy3]", "values": [{"measurement": "cells with intercellular signals of the oligos, Arginine compared with lipofectamine (FACS)", "setting": "[1]", "value": "more cells with intercellular signals of the oligos"}, {"measurement": "intensities of fluorescent signals in cells (FACS) vs no-treatment control", "setting": "[1]; Arginine only (10 ul/well)", "value": "significantly higher"}, {"measurement": "intensities of fluorescent signals in cells (FACS) vs no-treatment control", "setting": "[1]; with lipofectamine", "value": "significantly higher"}]}
{"substance": "TGTTAATTGGAACGCCTTGTC (FANA modified, pattern not given here, FITC label) [VS_ASO_1-FANA-FITC]", "values": [{"measurement": "intensities of fluorescent signals in cells (FACS) vs no-treatment control", "setting": "[1]; without lipofectamine or Arginine reagents", "value": "significantly stronger"}, {"measurement": "entry into cells, microscopic analysis", "setting": "[2]", "value": "entry"}, {"measurement": "entry into cells, microscopic analysis", "setting": "[3]", "value": "entry"}, {"measurement": "entry into cells, microscopic analysis", "setting": "[4]", "value": "can enter epithelial cells"}]}
{"substance": "VS_DsiRNA-Cy5: DsiRNA SEQ ID NOs: 23 & 24, target N-protein, Cy5 labeled (chain 1 AAACUAAAAUGUCUGAUAAUGGACC; chain 2 GGUCCAUUAUCAGACAUUUUAGUUUGU; chain 1: sugars from the 5' end r23 d2, backbone not given here; chain 2: chemistry not given here; Cy5 label)", "values": [{"measurement": "cells with intercellular signals of the oligos, Arginine compared with lipofectamine (FACS)", "setting": "[1]", "value": "more cells with intercellular signals of the oligos"}, {"measurement": "intensities of fluorescent signals in cells (FACS) vs no-treatment control", "setting": "[1]; Arginine only (10 ul/well)", "value": "significantly higher"}, {"measurement": "intensities of fluorescent signals in cells (FACS) vs no-treatment control", "setting": "[1]; with lipofectamine", "value": "significantly higher"}, {"measurement": "entry into cells, microscopic analysis", "setting": "[2]", "value": "entry"}, {"measurement": "entry into cells, microscopic analysis", "setting": "[3]", "value": "entry"}, {"measurement": "entry into cells, microscopic analysis", "setting": "[4]", "value": "can enter epithelial cells"}]}
